According to patent publication US6610471B1, “Methods and compositions to investigate infection by hepatitis B virus and agents to prevent and treat the infection” (priority 1998, dated 2003):

Legend:
Type in all cases: cell-based, hepatitis B virus
[1] = tested on: HBV; test: Extracellular HBV DNA secreted by HBV baculovirus infected HepG2 cells (Southern blot, densitometry); settings: 0.2 μM 3TC, 10 day treatment
[2] = tested on: HBV; test: Intracellular HBV replicative intermediates in HBV baculovirus infected HepG2 cells (Southern blot, densitometry); settings: 50 pfu/cell
Description: On the indicated days (3, 6, and 9 days of drug treatment) HBV replication in HepG2 cultures was assessed by examining extracellular HBV DNA and intracellular replicative intermediates.
(§1) (T). […] Relaxed circular (RC) and double-stranded (DS) forms of HBV DNA are indicated. […] (T). […] Replicative intermediates were analyzed by Southern blotting. Double-stranded (DS) and single-stranded (SS) forms of HBV genomic DNA are indicated.
(§2) HepG2 cells were seeded at approximately 20% to 40% confluency and then were grown for 16 to 24 hours before infection. On the day of infection, duplicate plates of cells were trypsinized, and viable cell number was determined with a hemocytometer using Trypan blue exclusion. Average cell counts were calculated and used to determine the volume of high-titer viral stock necessary to infect cells at the indicated moi. Baculovirus was diluted into MEM-FBS to achieve the appropriate moi using volumes of 1.0 and 0.25 mL to infect 100-mm and 35-mm dishes, respectively. Baculovirus was adsorbed to HepG2 cells for one hour at 37° C. with gentle rocking every 15 minutes to ensure that the inoculum was evenly distributed. The inoculum was then aspirated and HepG2 cells were washed two times with phosphate-buffered saline and refed MEM-FBS.
HBV core particles were isolated from the cytoplasmic fraction of HepG2 cells lysed in 0.5% Np40. Cytoplasmic extracts were adjusted to 10 mmol/L MgCl2 and unprotected DNA was removed by an incubation with 500 μg/mL DNasel for 1 hour at 37° C. Samples were then adjusted to 50 mmol/L ethylenediaminetetraacetic acid, 50 mmol/L Tris, 0.5% sodium dodecyl sulfate, and digested with 500 μg/mL. Proteinase K for 1.5 hours at 37° C. Following sequential phenol and chloroform extractions, nucleic acids were recovered by ethanol precipitation. Nucleic acids were resuspended in 50 μL TE (10 mmol/L Tris, 1 mmol/L ethylenediaminetetraacetic acid), normalized by OD260, and digested with 100 μg/mL RNase (Boehringer Mannheim, Indianapolis, Ind.) for one hour at 37° C. before analysis by electrophoresis and Southern blotting. A Molecular Dynamics (Sunnyvale, Calif.) 100A laser densitometer equipped with Quantity One software (Protein Databases Inc., Huntington Station, N.Y.) was used to analyze suitable exposures of Southern blots.
(§3) 3TC was a gift of BioChem Therapeutic Inc. (Laval, Quebec, Canada). […] Medium containing 3TC was prepared daily as needed using fresh aliquots of 3TC.

[3] = tested on: HBV; test: Extracellular HBV DNA secreted by HBV baculovirus infected HepG2 cells (Southern blot, densitometry)
Description: as §1
One limitation of using stable cell lines, such as HepG2 2.2.15 cells, for evaluating the efficacy of an antiviral on HBV replication is that the magnitude of virus replication is at a static level predetermined by the number of integrated HBV genome copies. […] Cultures were fed fresh 3TC supplemented medium daily. After 3 days of treatment (4 days p.i.). DNA was extracted from the medium of treated and untreated control cultures and analyzed by Southern Blotting. Autoradiograms shown indicate different elngths of time of exposure of the blot to film: 1 hour (A), 2 hours (B), 4 hours (C), and 8 hours (D). Relaxed circular (RC) and double-stranded (DS) forms of HBV DNA are indicated. The largest reduction of extracellular HBV DNA (>99% reduction after six days of treatment) occurred in cells infected with 25 pfu of baculovirus, the lowest multiplicity tested. […] However, it is also important to note that even a 96% reduction in HBV replication still allowed high levels of HBV virions to be secreted from 3TC-treated cells which were replicating very high levels of HBV (i.e. cells infected with HBV baculovirus at a high moi).
as §2
Conditioned medium was collected from HepG2 cells and subjected to centrifugation at 6,000 g for 5 minutes to I5- remove cellular debris. HBV particles were precipitated with 10% PEG 8000 and were concentrated by centrifugation at 12,000×g. Viral pellets were resuspended in 1 mL of MEM-FBS and divided into two aliquots. One set of aliquots was treated with 750 μg/mL Pronase for one hour and then with 500 mg/mL DNase 1 for one hour. Both sets of aliquots were then digested with Proteinase K, and extracted with phenol and chloroform. DNA was precipitated with 0.1 volume of 3 mol/L sodium acetate and 1 volume of isopropanol. Ten micrograms of transfer RNA was added as a carrier during precipitation. Pellets were resuspended in 25 μL of TE and digested with 0.5 mg/mL RNase for 1 hour. DNA was then analyzed by electrophoresis and Southern blotting.
as §3

Nc1ccn([C@@H]2CS[C@H](CO)O2)c(=O)n1 [3TC, (−)-2′-dideoxy-3′-thiacytidine]
reduction in extracellular DNA [1]: ~98% | intracellular HBV replicative intermediates, % Untreated Control ([2]; 0.02 μM 3TC, P (from 16 h prior to infection), day 4 p.i. (3 days treatment)): 82.5 % Untreated Control | intracellular HBV replicative intermediates, % Untreated Control ([2]; 0.02 μM 3TC, P (from 16 h prior to infection), day 7 p.i. (6 days treatment)): 100 % Untreated Control | intracellular HBV replicative intermediates, % Untreated Control ([2]; 0.02 μM 3TC, P (from 16 h prior to infection), day 10 p.i. (9 days treatment)): 68.2 % Untreated Control | intracellular HBV replicative intermediates, % Untreated Control ([2]; 0.02 μM 3TC, T (from 24 h p.i.), day 4 p.i. (3 days treatment)): 57.4 % Untreated Control | intracellular HBV replicative intermediates, % Untreated Control ([2]; 0.02 μM 3TC, T (from 24 h p.i.), day 7 p.i. (6 days treatment)): 100 % Untreated Control | intracellular HBV replicative intermediates, % Untreated Control ([2]; 0.02 μM 3TC, T (from 24 h p.i.), day 10 p.i. (9 days treatment)): 59.6 % Untreated Control | intracellular HBV replicative intermediates, % Untreated Control ([2]; 0.2 μM 3TC, P (from 16 h prior to infection), day 4 p.i. (3 days treatment)): 41.7 % Untreated Control | intracellular HBV replicative intermediates, % Untreated Control ([2]; 0.2 μM 3TC, P (from 16 h prior to infection), day 7 p.i. (6 days treatment)): 20.0 % Untreated Control | intracellular HBV replicative intermediates, % Untreated Control ([2]; 0.2 μM 3TC, P (from 16 h prior to infection), day 10 p.i. (9 days treatment)): 6.5 % Untreated Control | intracellular HBV replicative intermediates, % Untreated Control ([2]; 0.2 μM 3TC, T (from 24 h p.i.), day 4 p.i. (3 days treatment)): 35.0 % Untreated Control | intracellular HBV replicative intermediates, % Untreated Control ([2]; 0.2 μM 3TC, T (from 24 h p.i.), day 7 p.i. (6 days treatment)): 16.7 % Untreated Control | intracellular HBV replicative intermediates, % Untreated Control ([2]; 0.2 μM 3TC, T (from 24 h p.i.), day 10 p.i. (9 days treatment)): 6.7 % Untreated Control | intracellular HBV replicative intermediates, % Untreated Control ([2]; 2.0 μM 3TC, P (from 16 h prior to infection), day 4 p.i. (3 days treatment)): 8.2 % Untreated Control | intracellular HBV replicative intermediates, % Untreated Control ([2]; 2.0 μM 3TC, P (from 16 h prior to infection), day 7 p.i. (6 days treatment)): 7.1 % Untreated Control | intracellular HBV replicative intermediates, % Untreated Control ([2]; 2.0 μM 3TC, P (from 16 h prior to infection), day 10 p.i. (9 days treatment)): 1.3 % Untreated Control | intracellular HBV replicative intermediates, % Untreated Control ([2]; 2.0 μM 3TC, T (from 24 h p.i.), day 4 p.i. (3 days treatment)): 12.1 % Untreated Control | intracellular HBV replicative intermediates, % Untreated Control ([2]; 2.0 μM 3TC, T (from 24 h p.i.), day 7 p.i. (6 days treatment)): 8.5 % Untreated Control | intracellular HBV replicative intermediates, % Untreated Control ([2]; 2.0 μM 3TC, T (from 24 h p.i.), day 10 p.i. (9 days treatment)): 2.1 % Untreated Control | extracellular HBV DNA, % Untreated Control ([3]; 0.02 μM 3TC, P (from 16 h prior to infection), day 4 p.i. (3 days treatment), 50 pfu/cell): 69.8 % Untreated Control | extracellular HBV DNA, % Untreated Control ([3]; 0.02 μM 3TC, P (from 16 h prior to infection), day 7 p.i. (6 days treatment), 50 pfu/cell): 60.6 % Untreated Control | extracellular HBV DNA, % Untreated Control ([3]; 0.02 μM 3TC, P (from 16 h prior to infection), day 10 p.i. (9 days treatment), 50 pfu/cell): 38.1 % Untreated Control | extracellular HBV DNA, % Untreated Control ([3]; 0.02 μM 3TC, T (from 24 h p.i.), day 4 p.i. (3 days treatment), 50 pfu/cell): 68.1 % Untreated Control | extracellular HBV DNA, % Untreated Control ([3]; 0.02 μM 3TC, T (from 24 h p.i.), day 7 p.i. (6 days treatment), 50 pfu/cell): 39.6 % Untreated Control | extracellular HBV DNA, % Untreated Control ([3]; 0.02 μM 3TC, T (from 24 h p.i.), day 10 p.i. (9 days treatment), 50 pfu/cell): 33.0 % Untreated Control | reduction of extracellular HBV DNA ([3]; 0.02 μM 3TC, nine day treatment, moi 50 pfu/cell): 67% | reduction of HBV DNA in the medium ([3]; 0.02 μM 3TC, three days of treatment, moi 50 pfu/cell): about 30% | extracellular HBV DNA, % Untreated Control ([3]; 0.2 μM 3TC from 24 h p.i., moi 25, day 4 p.i. (3 days treatment)): 4.8 % Untreated Control | extracellular HBV DNA, % Untreated Control ([3]; 0.2 μM 3TC from 24 h p.i., moi 25, day 7 p.i. (6 days treatment)): 0.5 % Untreated Control | extracellular HBV DNA, % Untreated Control ([3]; 0.2 μM 3TC from 24 h p.i., moi 50, day 4 p.i. (3 days treatment)): 13.9 % Untreated Control | extracellular HBV DNA, % Untreated Control ([3]; 0.2 μM 3TC from 24 h p.i., moi 50, day 7 p.i. (6 days treatment)): 3.5 % Untreated Control | extracellular HBV DNA, % Untreated Control ([3]; 0.2 μM 3TC from 24 h p.i., moi 100, day 4 p.i. (3 days treatment)): 27.2 % Untreated Control | extracellular HBV DNA, % Untreated Control ([3]; 0.2 μM 3TC from 24 h p.i., moi 100, day 7 p.i. (6 days treatment)): 3.4 % Untreated Control | extracellular HBV DNA, % Untreated Control ([3]; 0.2 μM 3TC from 24 h p.i., moi 200, day 4 p.i. (3 days treatment)): 20.7 % Untreated Control | extracellular HBV DNA, % Untreated Control ([3]; 0.2 μM 3TC from 24 h p.i., moi 200, day 7 p.i. (6 days treatment)): 2.2 % Untreated Control | extracellular HBV DNA, % Untreated Control ([3]; 0.2 μM 3TC from 24 h p.i., moi 400, day 4 p.i. (3 days treatment)): 18.7 % Untreated Control | extracellular HBV DNA, % Untreated Control ([3]; 0.2 μM 3TC from 24 h p.i., moi 400, day 7 p.i. (6 days treatment)): 4.7 % Untreated Control | extracellular HBV DNA, % Untreated Control ([3]; 0.2 μM 3TC, P (from 16 h prior to infection), day 4 p.i. (3 days treatment), 50 pfu/cell): 10.1 % Untreated Control | extracellular HBV DNA, % Untreated Control ([3]; 0.2 μM 3TC, P (from 16 h prior to infection), day 7 p.i. (6 days treatment), 50 pfu/cell): 2.4 % Untreated Control | extracellular HBV DNA, % Untreated Control ([3]; 0.2 μM 3TC, P (from 16 h prior to infection), day 10 p.i. (9 days treatment), 50 pfu/cell): 0.8 % Untreated Control | extracellular HBV DNA, % Untreated Control ([3]; 0.2 μM 3TC, T (from 24 h p.i.), day 4 p.i. (3 days treatment), 50 pfu/cell): 13.4 % Untreated Control | extracellular HBV DNA, % Untreated Control ([3]; 0.2 μM 3TC, T (from 24 h p.i.), day 7 p.i. (6 days treatment), 50 pfu/cell): 5.6 % Untreated Control | extracellular HBV DNA, % Untreated Control ([3]; 0.2 μM 3TC, T (from 24 h p.i.), day 10 p.i. (9 days treatment), 50 pfu/cell): 1.9 % Untreated Control | reduction of extracellular HBV DNA ([3]; 0.2 μM 3TC, six days of treatment, 25 pfu of baculovirus): > 99% | average reduction of extracellular HBV DNA ([3]; 0.2 μM 3TC, six days of treatment, multiplicities 50 to 400 pfu/cell): greater than 96% | extracellular HBV DNA, % Untreated Control ([3]; 2.0 μM 3TC, P (from 16 h prior to infection), day 4 p.i. (3 days treatment), 50 pfu/cell): 1.3 % Untreated Control | extracellular HBV DNA, % Untreated Control ([3]; 2.0 μM 3TC, P (from 16 h prior to infection), day 7 p.i. (6 days treatment), 50 pfu/cell): 1.2 % Untreated Control | extracellular HBV DNA, % Untreated Control ([3]; 2.0 μM 3TC, P (from 16 h prior to infection), day 10 p.i. (9 days treatment), 50 pfu/cell): 0.8 % Untreated Control | extracellular HBV DNA, % Untreated Control ([3]; 2.0 μM 3TC, T (from 24 h p.i.), day 4 p.i. (3 days treatment), 50 pfu/cell): 2.4 % Untreated Control | extracellular HBV DNA, % Untreated Control ([3]; 2.0 μM 3TC, T (from 24 h p.i.), day 7 p.i. (6 days treatment), 50 pfu/cell): 2.4 % Untreated Control | extracellular HBV DNA, % Untreated Control ([3]; 2.0 μM 3TC, T (from 24 h p.i.), day 10 p.i. (9 days treatment), 50 pfu/cell): 0.8 % Untreated Control | reduction of extracellular HBV DNA ([3]; 2.0 μM 3TC, nine days of treatment, moi 50 pfu/cell): more than 99%
